Results: ChEMBL document CHEMBL3580594, “Synthesis and biological evaluation of 4-substituted fluoronucleoside analogs for the treatment of hepatitis B virus infection” (J Med Chem, 2015)

What was measured:
Mus musculus [1] = assay: Acute toxicity in KM mouse assessed as morbidity at 3 g/kg, iv suspended in 0.5% CMC/Na solution after 14 days; assay type: organism-based; details: in vivo, 3000 mg/kg, 336 h
Mus musculus [2] = assay: Toxicity in KM mouse assessed as micronucleus frequency in bone marrow polychromatic erythrocyte at 10 mg/kg, po single dose after 48 hrs (reference value: 1.20 +/- 0.45 %); assay type: organism-based; details: in vivo
Duck hepatitis B virus = assay: Antiviral activity against duck Hepatitis B virus infected in duck assessed as inhibition of viral DNA replication in liver at 1 mg/kg/day, po treatment initiated at day 10 after infection relative to control; assay type: functional; details: 240 h

[N-]=[N+]=N[C@]1(CO)O[C@@H](n2ccc(NC3CC3)nc2=O)[C@@H](F)[C@@H]1O
Activity (Mus musculus [1]): Non-toxic | Activity (Mus musculus [2]): 1.4% | inhibition in vivo at 1 mg/kg/day (Duck hepatitis B virus): 82.1%
